Experimental data taken from ChEMBL document CHEMBL4118115, “Synthetic analogues of durantoside I from Citharexylum spinosum L. and their cytotoxic activity” (Bioorg Med Chem Lett, 2018).

How the values were obtained:
MCF7 = experiment: Cytotoxicity against human MCF7 cells assessed as reduction in cell viability by Sulforhodamine B assay; type: functional, cell-based
HEK293 = experiment: Cytotoxicity against HEK293 cells assessed as reduction in cell viability by Sulforhodamine B assay; type: cell-based; details: Homo sapiens
HT-29 = experiment: Cytotoxicity against human HT-29 cells assessed as reduction in cell viability by Sulforhodamine B assay; type: functional, cell-based
KB = experiment: Cytotoxicity against human KB cells assessed as reduction in cell viability by Sulforhodamine B assay; type: functional, cell-based
[1] = Cytotoxicity against rat ASK cells assessed as reduction in cell viability by Sulforhodamine B assay; type: functional, cell-based
A549 = experiment: Cytotoxicity against human A549 cells assessed as reduction in cell viability by Sulforhodamine B assay; type: functional, cell-based
P388 = experiment: Cytotoxicity against mouse P388 cells assessed as reduction in cell viability by Sulforhodamine B assay; type: functional, cell-based

Row | SMILES | IC50 (MCF7) [µM] | IC50 (HEK293) [µM] | IC50 (HT-29) [µM] | IC50 (KB) [µM] | IC50 [1] [µM] | IC50 (A549) [µM] | IC50 (P388) [µM]
1 | COC(=O)C1=CO[C@@H](O[C@H]2O[C@@H](COC(C)=O)[C@H](OC(C)=O)[C@@H](OC(C)=O)[C@@H]2OC(C)=O)[C@@H]2[C@@](C)(O)[C@@H](OC(=O)/C=C/c3ccccc3)C[C@]12O | > 50 | > 50 | > 50 | > 50 | > 50 | > 50 | > 50
2 | Cc1c2ccncc2c(C)c2c1[nH]c1ccccc12 [ELLIPTECINE] | 1.99 | 1.9 | 2 | 2.15 | 2.02 | 1.96 | 1.84
3 | COC(=O)C1=CO[C@@H](O[C@H]2O[C@@H](CO)[C@H](O)[C@@H](O)[C@@H]2O)[C@@H]2[C@@](C)(O)[C@@H](OC(=O)/C=C/c3ccccc3)C[C@]12O | > 50 | > 50 | > 50 | > 50 | > 50 | > 50 | > 50
4 | COC(=O)C1=CO[C@@H](O[C@H]2O[C@@H](COC(C)=O)[C@H](OC(C)=O)[C@@H](OC(C)=O)[C@@H]2OC(C)=O)[C@@H]2[C@@](C)(OC(C)=O)[C@@H](OC(=O)/C=C/c3ccccc3)C[C@]12O | > 50 | 45 | > 50 | > 50 | > 50 | > 50 | > 50
5 | COC(=O)C1=CO[C@@H](O[C@H]2O[C@@H](CO[Si](c3ccccc3)(c3ccccc3)C(C)(C)C)[C@H](OC(C)=O)[C@@H](OC(C)=O)[C@@H]2OC(C)=O)[C@@H]2[C@@](C)(O)[C@@H](OC(=O)/C=C/c3ccccc3)C[C@]12O | > 50 | > 50 | 37.2 | > 50 | > 50 | > 50 | 6.11
6 | COC(=O)C1=CO[C@@H](O[C@H]2O[C@@H](CO[Si](C)(C)C(C)(C)C)[C@H](OC(C)=O)[C@@H](OC(C)=O)[C@@H]2OC(C)=O)[C@@H]2[C@@](C)(O)[C@@H](OC(=O)/C=C/c3ccccc3)C[C@]12O | 43.3 | 31.8 | > 50 | > 50 | > 50 | > 50 | 3.11
7 | COC(=O)C1=CO[C@@H](O[C@H]2O[C@@H](CO[Si](c3ccccc3)(c3ccccc3)C(C)(C)C)[C@H](OC(C)=O)[C@@H](OC(C)=O)[C@@H]2OC(C)=O)[C@@H]2[C@@](C)(O)[C@@H](OC(C)=O)C[C@]12O | 9.01 | 7.4 | 35 | 14.7 | 9.19 | 8.2 | 3.67
